Source: ChEMBL document CHEMBL1201862, “PubChem BioAssay data set” (2004)
Active and inactive are the calls of the source.

What was measured:
[1] = biological target: Megakaryocyte-associated tyrosine-protein kinase (Homo sapiens, UniProt P42679); type: functional;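 also: affinity measured as one member of a kinase panel (Navigating the Kinome) against MATK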
[2] = biological target: Death-associated protein kinase 3 (Homo sapiens, UniProt O43293); type: functional;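 also: measured as one member of a kinome-wide profiling panel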
Death-associated protein kinase 3, sequence (O43293 whole entry): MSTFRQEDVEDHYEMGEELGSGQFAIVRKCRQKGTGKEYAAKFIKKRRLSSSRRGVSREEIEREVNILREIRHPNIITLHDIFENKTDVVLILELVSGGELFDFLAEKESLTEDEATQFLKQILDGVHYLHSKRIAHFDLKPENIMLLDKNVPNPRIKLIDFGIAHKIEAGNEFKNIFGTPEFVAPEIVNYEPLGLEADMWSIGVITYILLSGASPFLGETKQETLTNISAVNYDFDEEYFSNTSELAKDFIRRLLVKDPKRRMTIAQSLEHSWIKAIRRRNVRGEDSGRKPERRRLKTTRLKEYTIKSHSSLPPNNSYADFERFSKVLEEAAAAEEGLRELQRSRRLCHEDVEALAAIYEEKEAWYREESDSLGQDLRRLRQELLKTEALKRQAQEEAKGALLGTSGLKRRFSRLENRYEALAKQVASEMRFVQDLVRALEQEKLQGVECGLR

[3] = biological target: Testis-specific serine/threonine-protein kinase 1 (Homo sapiens, UniProt Q9BXA7); type: functional
Testis-specific serine/threonine-protein kinase 1, sequence (Q9BXA7 whole entry): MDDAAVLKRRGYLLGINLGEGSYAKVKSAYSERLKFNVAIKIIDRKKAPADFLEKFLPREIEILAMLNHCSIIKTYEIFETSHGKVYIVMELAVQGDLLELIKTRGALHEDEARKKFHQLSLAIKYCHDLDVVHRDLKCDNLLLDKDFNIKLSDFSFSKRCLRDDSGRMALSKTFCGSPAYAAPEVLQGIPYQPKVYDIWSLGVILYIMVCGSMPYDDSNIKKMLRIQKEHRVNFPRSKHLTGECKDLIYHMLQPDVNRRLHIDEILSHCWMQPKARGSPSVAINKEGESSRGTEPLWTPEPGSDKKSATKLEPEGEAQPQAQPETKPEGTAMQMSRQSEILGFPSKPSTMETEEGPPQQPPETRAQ

[4] = biological target: Dual specificity tyrosine-phosphorylation-regulated kinase 3 (Homo sapiens, UniProt O43781); type: functional;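 also: measured as one member of a broad kinase panel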
Dual specificity tyrosine-phosphorylation-regulated kinase 3, sequence (O43781 whole entry): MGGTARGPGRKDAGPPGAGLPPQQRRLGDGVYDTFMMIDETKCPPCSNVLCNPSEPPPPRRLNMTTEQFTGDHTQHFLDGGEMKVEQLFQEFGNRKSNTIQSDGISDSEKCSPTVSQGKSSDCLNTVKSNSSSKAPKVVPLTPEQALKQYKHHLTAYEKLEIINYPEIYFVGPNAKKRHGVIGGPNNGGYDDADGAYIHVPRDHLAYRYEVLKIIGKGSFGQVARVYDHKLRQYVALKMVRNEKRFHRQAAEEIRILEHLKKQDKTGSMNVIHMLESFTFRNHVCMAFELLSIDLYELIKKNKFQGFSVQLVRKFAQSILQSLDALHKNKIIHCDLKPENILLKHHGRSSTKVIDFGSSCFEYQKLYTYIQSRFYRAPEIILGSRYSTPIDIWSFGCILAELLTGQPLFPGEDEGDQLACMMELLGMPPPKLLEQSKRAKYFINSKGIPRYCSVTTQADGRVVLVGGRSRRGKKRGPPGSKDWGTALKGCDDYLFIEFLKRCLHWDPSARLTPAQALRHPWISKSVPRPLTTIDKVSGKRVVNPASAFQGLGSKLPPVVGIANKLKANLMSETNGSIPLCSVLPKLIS

[5] = biological target: cAMP-dependent protein kinase catalytic subunit alpha (Homo sapiens, UniProt P17612); type: functional
[6] = biological target: Mitogen-activated protein kinase kinase kinase 10 (Homo sapiens, UniProt Q02779); assay: Navigating the Kinome. Panel member name: MAP3K10; type: functional
Mitogen-activated protein kinase kinase kinase 10, sequence (Q02779 whole entry, the tested form may be a part): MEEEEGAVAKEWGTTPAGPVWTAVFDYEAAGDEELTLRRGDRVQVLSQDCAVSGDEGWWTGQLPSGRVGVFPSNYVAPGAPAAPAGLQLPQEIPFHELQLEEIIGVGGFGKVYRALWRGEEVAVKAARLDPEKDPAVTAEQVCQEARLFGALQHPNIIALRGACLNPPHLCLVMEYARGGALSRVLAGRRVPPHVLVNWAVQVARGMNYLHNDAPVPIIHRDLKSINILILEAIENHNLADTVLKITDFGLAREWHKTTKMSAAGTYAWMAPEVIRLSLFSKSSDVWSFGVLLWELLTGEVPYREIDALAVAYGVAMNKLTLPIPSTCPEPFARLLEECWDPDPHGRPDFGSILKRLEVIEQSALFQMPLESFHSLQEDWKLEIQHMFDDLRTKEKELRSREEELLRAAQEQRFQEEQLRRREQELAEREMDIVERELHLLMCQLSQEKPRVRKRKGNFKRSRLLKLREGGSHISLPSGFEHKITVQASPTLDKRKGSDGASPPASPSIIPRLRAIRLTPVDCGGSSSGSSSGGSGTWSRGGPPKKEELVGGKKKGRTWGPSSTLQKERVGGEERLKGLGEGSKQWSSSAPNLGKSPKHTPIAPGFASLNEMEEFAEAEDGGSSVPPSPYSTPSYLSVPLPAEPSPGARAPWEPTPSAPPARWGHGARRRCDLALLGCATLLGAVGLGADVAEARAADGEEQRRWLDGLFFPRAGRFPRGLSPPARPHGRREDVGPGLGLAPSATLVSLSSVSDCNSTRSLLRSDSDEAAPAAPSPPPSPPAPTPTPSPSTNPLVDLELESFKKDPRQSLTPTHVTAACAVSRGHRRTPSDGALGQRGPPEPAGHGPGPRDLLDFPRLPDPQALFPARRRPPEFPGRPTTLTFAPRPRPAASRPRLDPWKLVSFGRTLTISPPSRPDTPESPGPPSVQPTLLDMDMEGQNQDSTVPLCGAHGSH

[7] = inhibition of ARNT PAS-B/TACC3 complex formation – biochemical, AlphaScreen, cherry-picked samples, confirmation (AID 651703); type: functional, Homo sapiens;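 also: His-tagged ARNT PAS-B domain paired with GST-TACC3 E629A dimer coactivator fragment; potency of inhibitors that break up the complex and lower AlphaScreen signal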

Megakaryocyte-associated tyrosine-protein kinase, sequence (P42679 whole entry): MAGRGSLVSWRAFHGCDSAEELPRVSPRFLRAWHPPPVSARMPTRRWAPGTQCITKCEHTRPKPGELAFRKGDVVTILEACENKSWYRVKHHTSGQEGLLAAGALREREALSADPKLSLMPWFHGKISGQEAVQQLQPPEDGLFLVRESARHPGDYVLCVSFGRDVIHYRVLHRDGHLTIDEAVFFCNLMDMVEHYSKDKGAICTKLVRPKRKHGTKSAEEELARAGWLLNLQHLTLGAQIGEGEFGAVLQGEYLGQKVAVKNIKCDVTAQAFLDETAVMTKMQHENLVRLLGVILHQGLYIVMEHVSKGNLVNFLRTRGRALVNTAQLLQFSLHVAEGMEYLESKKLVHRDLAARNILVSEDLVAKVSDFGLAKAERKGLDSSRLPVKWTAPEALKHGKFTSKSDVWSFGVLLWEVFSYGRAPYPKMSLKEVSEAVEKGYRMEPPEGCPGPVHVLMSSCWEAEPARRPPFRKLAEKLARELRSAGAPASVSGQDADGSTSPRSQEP

Ki [1]	Ki [3]	Ki [4]	Ki [5]	Ki [6]	Structure (SMILES)	Ki [2]	AC50 [7]
1.58 µM (active)	> 1 µM (inactive)	50.1 nM (active)	126 nM (active)	79.4 nM (active)	OC1CCC(Nc2cc(Cl)nc(-c3c[nH]c4ncccc34)n2)CC1 (configuration not stated)	316 nM (active)	
					O=C(COC(=O)c1ccc([N+](=O)[O-])s1)NCCc1ccccc1		83.7 µM (active)
